Read-outs that look alike come from different tables or passages of the source.
Columns and labels:
Assay type in all cases: in vivo
[1] = test system: Kunming breed mice; conditions: 200 mg/kg stomach perfusion
[2] = test system: Kunming breed mice; assay: Body twisting test, skin administration of fuziline (Test 9); conditions: 200 mg/kg ig.; acetic acid 30 minutes after
Protocol: Divide randomly the 40 Kunming breed mice, weighing 18-22 g, into 4 groups with equal number of each gender and each group. […] The first group is the negative control group. Smear an even layer of Vaseline plaster 0.1 g/piece onto the hair-disposed area of the of negative control group mice, covered lightly with a piece of gauze (1.5 cm×1.5 cm). The second group, as the positive control group is given stomach perfusion with 200 mg/kg of aspirin (20 times the practice use). […] Except that the mice of the second group are injected into the stomach cavity with 0.6% glacial acetic acid solution 30 minutes after the smearing, the mice of all other groups are injected into the stomach cavity with 0.6% glacial acetic acid solution 1.5 hours after the smearing; observe the number of body twisting of each mouse 5 to 10 minutes after the injection; make statistical analysis of the data to calculate the increasing rate of pain threshold and the standard deviation of each group; compare the intergroup differences between each drug group and the negative control group with t-test.

[3] = test system: Kunming breed mice; assay: Body twisting test, mixtures of fuziline and hypaconitine in different proportions (Test 6); conditions: aspirin 200 mg/kg stomach perfusion
[4] = test system: Kunming breed mice; assay: Body twisting test, mixtures of fuziline, benzoylmesaconitine, mesaconitine and hypaconitine in different proportions (Test 4); conditions: aspirin 200 mg/kg stomach perfusion
Protocol: Enteric coated aspirin tablet, white, 25 mg/pill, supplied by Xuzhou Enhua Pharmaceuticals Co., Ltd, batch No.: 20050312; take 4 pills of enteric coated aspirin tablet; grind and add with distilled water up to 10 ml to compound 10 mg/ml of solution composed of aspirin;
Divide at random the 70 Kunming breed mice, weighing 18-22 g, into 7 groups with equal number of each gender and each group, with the first group as the negative control group and the second group as the positive control group; perfuse the stomach of the first group mice with 0.2 ml/10 g of 10% alcohol; perfuse the stomach of the second group mice with 200 mg/kg (20 times the practice dose) of aspirin; the 3rd, 4th, 5th, 6th and 7th group are groups in five different proportions of […], benzoylmesaconitine, mesaconitine and hypaconitine; perfuse the groups with solution in five different proportions of […], benzoylmesaconitine, mesaconitine and hypaconitine; […]; inject into the stomach cavity of the mice with 0.2 ml of 0.6% glacial acetic acid 30 minutes after administration; observe the number of body twisting of each mouse 5 to 10 minutes after the injection of acetic acid; make statistical analysis of the data to calculate the increasing rate of pain threshold and the standard deviation of each group; compare the intergroup differences between each drug group and the negative control group with t-test.

[5] = test system: Kunming breed mice; assay: Body twisting test, mixtures of fuziline and benzoylmesaconitine in different proportions (Test 7); conditions: aspirin 200 mg/kg stomach perfusion
[6] = test system: Kunming breed mice; assay: Body twisting test, intramuscular injection of fuziline (Test 8); conditions: 200 mg/kg ig.
[7] = test system: Kunming breed mice; conditions: aspirin 200 mg/kg stomach perfusion

CC(=O)Oc1ccccc1C(=O)O [Aspirin, aspirin]
Body twisting number ( χ ± SD) ([1]; Table 2): 3.1 ± 3.3
Pain suppression rate ([1]; Table 2): 90.96%
Body twisting number ( χ ± SD) ([1]; Table 3): 3.1 ± 3.2
Pain suppression rate ([1]; Table 3): 92.11%
Body twisting number ( x ± SD) [2]: 5.1 ± 6.0
Pain suppression rate [2]: 81.6%
Body twisting number ( x ± SD) [3]: 3.1 ± 3.3
Pain suppression rate [3]: 82.7%
Body twisting number ( x ± SD) [4]: 3.3 ± 3.2
Pain suppression rate [4]: 88.0%
Body twisting number ( x ± SD) [5]: 3.1 ± 3.3
Pain suppression rate [5]: 82.7%
Body twisting number ( x ± SD) [6]: 5.1 ± 6.0
Pain suppression rate [6]: 81.6%
Body twisting number ( x ± SD) [7]: 3.0 ± 3.3
Pain suppression rate [7]: 82.7%

From patent US20090163528A1, “Pharmaceutical composition having analgesic effects” (priority 2004, published 2009)
